PubChem BioAssay AID1996
≈ marks a conversion by molar mass, not a printed value.

Conditions: buffer; pH 7.4; 200.0 µM

Row | SMILES | solubility kinetic
1 | S=C(c1ccc(OCc2ccccc2)cc1)N1CCCC1 | < 0.6 µg/mL
2 | CC(=O)Nc1cccc(NC(=S)Nc2cccc3ccccc23)c1 | > 50.3 µg/mL
3 | COC(=O)C1CCN(C(=O)/C(C)=C\c2ccccc2)CC1 | 41 µg/mL (≈ 143 µM)
4 | CC(C)(C)c1ccc(C(=O)Nc2ccc(F)cc2)s1 | < 0.6 µg/mL
5 | NC(=O)C1CCN(S(=O)(=O)c2ccc3c(c2)OCCO3)CC1 | > 49 µg/mL
6 | CC1CCN(Cc2cc(=O)oc3cc(O)c(Cl)cc23)CC1 | > 46.2 µg/mL
7 | Cc1cc(C)c(C)c(S(=O)(=O)NC2CCCCC2)c1C | < 0.6 µg/mL
8 | O=C(Nc1cc(Cl)ccc1N1CCOCC1)c1ccc(=O)[nH]c1 | 38.1 µg/mL (≈ 114 µM)
9 | COc1ccc(NC(=O)CN(C)CC(=O)NC2CCC(C)CC2)cc1 (centres undefined) | > 52.1 µg/mL
10 | Cc1cccc(C)c1NC(=O)c1c(O)c2ccccc2[nH]c1=O | 0.5 µg/mL (≈ 1.62 µM)
11 | O=S(=O)(c1ccccc1C(F)(F)F)N1CCN(c2ncnc3sccc23)CC1 | 4.6 µg/mL (≈ 10.7 µM)
12 | Cc1ccc(OCC(=O)N2CCc3ccccc32)c([N+](=O)[O-])n1 | 1 µg/mL (≈ 3.19 µM)
13 | O=c1nc(-c2ccccc2)nc(-c2ccccc2)[nH]1 | 22.9 µg/mL (≈ 91.9 µM)
14 | O=C1C(C=Nc2ccc(F)cc2)=C(O)c2ccccc21 | < 0.6 µg/mL
15 | Cc1ccnc(S(=O)(=O)Cc2ccc([N+](=O)[O-])cc2)n1 | > 44 µg/mL
16 | COc1ccc2c(c1)C(=O)N(Cc1ccccc1)C(=O)C2(C)C | 10.5 µg/mL (≈ 33.9 µM)
17 | Cc1cccc(OCCSc2nc(N)cc(N)n2)c1 | > 41.5 µg/mL
18 | Cc1noc(C)c1C(=O)Nc1nc(-c2ccc(F)c(F)c2)cs1 | 4.8 µg/mL (≈ 14.3 µM)
19 | CN1C(=O)c2ccc(NC(=O)CSc3ccccc3)cc2C1=O | 6.3 µg/mL (≈ 19.3 µM)
20 | Cc1cc(C(=O)COC(=O)c2cnccn2)c(C)n1-c1ccc(Br)cc1 | 4.1 µg/mL (≈ 9.9 µM)

Row | SMILES | solubility kinetic
21 | CC1=C(C(=O)Nc2ccc(C(=O)NCCC(C)C)cc2)SCCO1 | 46.3 µg/mL (≈ 133 µM)
22 | CC(=O)Nc1ccc(NC(=O)c2cccc(Oc3ccccc3)c2)cc1 | < 0.4 µg/mL
23 | Cc1cccc2[nH]c3c(N4CC=C(c5ccc(F)cc5)CC4)ncnc3c12 | 1 µg/mL (≈ 2.79 µM)
24 | CC(=O)N1CC2([N+](=O)[O-])CN(C(C)=O)CC([N+](=O)[O-])(C1)C2(C)C | > 49.2 µg/mL
25 | Cn1c(=O)c2c(nc3n2CCS3)n(C)c1=O | > 35.7 µg/mL
26 | CCC(=O)Nc1ccc2c(c1)ncn2-c1ccc(C)cc1 | > 41.9 µg/mL
27 | Cn1cc(C(C[N+](=O)[O-])c2ccccc2)c2ccccc21 (centres undefined) | 2.6 µg/mL (≈ 9.27 µM)
28 | Cc1cccc(CN2CCN(C(=O)c3cccc4ccccc34)CC2)c1 | 38.6 µg/mL (≈ 112 µM)
29 | Cl.O=C(Nc1ncccc1Cl)c1ccc2c(c1)OCCO2 | 37 µg/mL
30 | O=C(NCc1cccs1)C1CC(=O)N(c2ccc(Cl)cc2)C1 (centres undefined) | 11.9 µg/mL (≈ 35.5 µM)
31 | COc1ccc(CNC(=O)CN(C)S(=O)(=O)c2ccccc2)cc1 | > 52.3 µg/mL
32 | CCn1cc(CNC(=S)Nc2cccc3ccccc23)cn1 | > 46.6 µg/mL
33 | CC12CC3CC(C)(C1)CC(C(=O)NCc1ccncc1)(C3)C2 | > 44.8 µg/mL
34 | CS(=O)(=O)c1ccc(C(=O)NC2CCCc3ccccc32)cc1 (centres undefined) | 35.2 µg/mL (≈ 107 µM)
35 | COc1cccc(N/C(N)=N/c2nc(C)cc(=O)[nH]2)c1 | 40.6 µg/mL (≈ 149 µM)
36 | O=C(OCCN=C1NS(=O)(=O)c2ccccc21)c1cccs1 | 2.5 µg/mL (≈ 7.43 µM)
37 | O=C(Nc1ccc2ccccc2n1)Nc1cccs1 | < 0.2 µg/mL
38 | O=C(O)CC(NC(=O)c1ccco1)c1ccco1 (centres undefined) | > 37.4 µg/mL
39 | CC(=O)Cn1ncc(N2CCOCC2)c(Br)c1=O | > 47.4 µg/mL
40 | C=C(C)Cn1cnc2cc(C)c(C)cc21 | > 30 µg/mL

Row | SMILES | solubility kinetic
41 | O=C(NC(=S)Nc1cccc([N+](=O)[O-])c1)C1CCCCC1 | < 0.2 µg/mL
42 | CC(CC(=O)O)CC(=O)Nc1cc([N+](=O)[O-])ccc1O (centres undefined) | > 42.3 µg/mL
43 | C=C(C)C1CC=C(CN2CCN(Cc3ccccc3)CC2)CC1 (centres undefined) | 17.8 µg/mL (≈ 57.3 µM)
44 | O=[N+]([O-])c1ccc(CN2C=NS(=O)(=O)c3ccccc32)cc1 | > 47.6 µg/mL
45 | C=CCNC(=O)c1cc2c(=O)n3ccccc3nc2s1 | 10.4 µg/mL (≈ 36.4 µM)
46 | CS(=O)(=O)N(CC(=O)Nc1ccc(F)cc1)C1CCCCC1 | 45.3 µg/mL (≈ 138 µM)
47 | CCNC(=O)CCSc1nc(C)cc(C)n1 | > 35.9 µg/mL
48 | O=C(NC1=NCCS1)c1ccccc1F | 33.4 µg/mL (≈ 149 µM)
49 | CC(=O)Nc1ccc(NC(=O)CC2CCCC2)cc1 | > 39.1 µg/mL
50 | C=CCn1c(=O)c(C(=O)NCc2ccc3c(c2)OCO3)c(O)c2ccccc21 | 1.3 µg/mL (≈ 3.44 µM)
51 | Cn1c(N)nc2nc(CCc3ccccc3)c(=O)[nH]c2c1=O | 9.9 µg/mL (≈ 33.3 µM)
52 | O=C(O)c1cc([N+](=O)[O-])ccc1C(=O)Nc1cccc([N+](=O)[O-])c1 | > 49.7 µg/mL
53 | Cc1ccc2c(=O)cc(C(=O)NC3CCS(=O)(=O)C3)oc2c1 (centres undefined) | > 48.2 µg/mL
54 | CC(=O)c1ccc(N2CCN(C(=O)Cc3cccs3)CC2)cc1 | 47.3 µg/mL (≈ 144 µM)
55 | COc1ccc(NC(=O)C2CCOC2=O)cc1 (centres undefined) | > 35.3 µg/mL
56 | COC(=O)c1ccccc1NC(=O)c1cc[n+]([O-])cc1 | 36.2 µg/mL (≈ 133 µM)
57 | CCOc1ccc(C(=O)OCC(=O)N2CCCC2)cc1OCC | 38.3 µg/mL (≈ 119 µM)
58 | Cc1ccc(S(N)(=O)=O)cc1NC(=O)C(c1ccccc1)c1ccccc1 | 37 µg/mL (≈ 97.2 µM)
59 | CCOc1ccccc1NC(=O)NC(=O)N(C)S(C)(=O)=O | 18 µg/mL (≈ 57.1 µM)
